Entries after “also recorded” stand apart in the source; their conditions may differ. *: point of attachment. X1 = CC[N+]1=C(/C=C/C=C/C=C2N(CCCCCC(=O)NCCN3C(=O)CC(*)C3=O)c3ccc(S(=O)(=O)O)cc3C2(C)C)C(C)(C)c2cc(S(=O)(=O)[O-])ccc21
Experiments:
[1] = molecular target: T1, human purified lactoferrin (Homo sapiens, UniProt P02788); experiment: Lactoferrin polymers immunofluorescence labelling; type: binding; conditions: PNGase treatment; listed as MUB40-Cy5
T1 construct: purchased Sigma-Aldrich L1294
Procedure: Lactoferrin polymerization. Human purified lactoferrin (ref: L1294, Sigma-Aldrich) was resuspended in deionized H2O (35 μg/mL). Lactoferrin was incubated in RPMI+10 mM Hepes supplemented with 10 mM FeCl3, at indicated concentrations (0.35 or 3.5 μg/mL) onto 24-well plates containing 12 mm coverslips overnight at 37° C., adapted from similar lactoferrin polymerization experiments performed in iron saturated phosphate buffer (Mantel et al. 1994).
Lactoferrin deglycolysation. About 10 μg of human purified lactoferrin (ref: L1294, Sigma-Aldrich) was treated by Peptide-N-Glycosidase F (PNGaseF, New England Biolabs, Ipswich Mass., USA) for N-deglycosylation. Protein was treated exactly as described in manufacturer protocol. Twelve unit of PNGase F were added for 4 h at 37° C. for the removal of N-glycosylation.
Lactoferrin polymers interaction with MUB40-Cy5. Lactoferrin polymers were centrifuged at 2000 rpm for 10 min and fixed in Paraformaldehyde (PFA) 4% for one hour. Lactoferrin polymers were immunolabeled in PBS+0.1% saponin (Sigma-Aldrich) with a mouse anti-lactoferrin primary monoclonal antibody (Hycult biotech, clone 265-1K1, 1:50 dilution) and an anti-mouse-FITC conjugated secondary antibody (1:1000), together with MUB40-Cy5 (SEQ ID NO: 3) (1 μg/mL). Slides were washed three times in PBS and three times in deionized H2O and mounted with prolong gold^tm mounting media.

[2] = tested on: cystic fibrosis (CF) patients sputum; experiment: CF patient sputum immunofluorescent staining; parameters: species or system human; conditions: together with anti-Muc2 and anti-Muc5ac antibodies, 1 μg/mL
Procedure: FIG. 4. CF patient sputum immunofluorescent staining with MUB40-Cy5 (SEQ ID NO: 3), anti-Muc2 and anti-Muc5ac antibodies (with secondary antibodies conjugated with FITC and Rhodamin respectively).
Muc2 was stained with an anti-Mucin2 antibody (green). Muc5ac was stained with an anti-Mucin5ac antibody (red). Tissue was additionally stained with MUB40-Cy5 (1 μg/mL, magenta). DNA was stained with Dapi (blue).

[3] = tested on: Colonic goblet cell granules; experiment: Fluorescent labelling of colonic goblet cell granules on fixed slides; type: cell-based, human; conditions: 1 μg/mL
Procedure: Colon explant surgical collection. In summary, human colon segments (ascending, descending, and sigmoid colon) were obtained from fully informed patients undergoing surgery for colon carcinoma and were analyzed anonymously. Patient written consent was obtained, according to the French bioethics law. None of the patients had undergone radiotherapy or chemotherapy. According to the pathologist's examination rules for the longitudinally bisected colon, a healthy segment of tissue, which was distant from the tumor region and devoid of metastatic cells, was removed. Tissues were processed according to the French Government guidelines for research on human tissues and the French Bioethics Act with the authorization no RBM 2009-50.
Antibodies, fluorescent markers. For immunofluorescence assay, lactoferrin was detected with a mouse anti-lactoferrin primary monoclonal antibody (Hycult biotech, clone 265-1K1, 1:50 dilution) and an anti-mouse-FITC conjugated secondary antibody (1:1000). Nuclei were detected with DAPI (Life Technologies), Lyophilized MUB40 peptides (MUB40#1 (SEQ ID NO: 3)-Cy5, MUB40#2 (SEQ ID NO: 4)-Cy5, MUB40#3 (SEQ ID NO: 5)-Cy5, MUB40#4 (SEQ ID NO: 6)-Cy5, MUB40#1 (SEQ ID NO: 3)-Dylight, RI-MUB40 (SEQ ID NO: 2)-Cy5, and RI-MUB40 (SEQ ID NO: 2)-Biotin) were solubilized in a phosphate buffer pH8 at a 1 mg/mL concentration and used at a 1:1000 dilution. […]

[4] = tested on: colonic mucus layer and infiltrated neutrophils; experiment: Human colonic explant infected with Shigella flexneri, two-photon microscopy; conditions: 1 μg/mL, after fixation and permeabilization
Text: Ex vivo infection of human colonic tissue. Human colon explants were infected with S. flexneri 5a (M90T) pGFP, as described in (Nothelfer et al. 2014) and adapted from (Coron et al. 2009). Briefly, colonic tissues were cut into ˜5 cm^2 segments and pinned flat, with the submucosa facing down, onto a 4% agarose layer in tissue culture Petri dishes containing DMEM/F12 culture medium (Invitrogen) supplemented with 10% FBS, glutamine, and 2.1 g/L NaHCO3(Sigma-Aldrich). S. flexneri (M90T) 5a pGFP was added at ˜2×10^8 bacteria per cm^2 of tissue. Bacteria were allowed to settle for 15 min at room temperature before incubation at 37° C., 5% CO2 for 6 h on a slowly rocking tray. Tissue was fixed by overnight incubation with 4% PFA (Euromedex) and 0.1 M Hepes (Gibco) in PBS. For whole-mount staining, tissues were fixed on a 40×11-mm tissue culture dish (TPP) with Histoacryl tissue glue (Braun). To obtain 150-μm-thick sections, the tissue was embedded in low-melting agarose according to (Snippert et al. 2011) and cut with a vibratome (VT1000E; Leica).
Two-photons microscopy. […] MUB40-Cy5 was detected using multiphoton excitation (MPE, magenta), Acquisitions were performed with Zen 2008 SP 1.1 software acquisition package developed by ZEISS. […]

[5] = tested on: Peripheral blood mononuclear cells (PBMC); experiment: Fluorescent labelling of PBMC; type: cell-based, human; conditions: PBMC fixed in PFA 3%
Text: Antibodies, fluorescent markers. For immunofluorescence assay, lactoferrin was detected with a mouse anti-lactoferrin primary monoclonal antibody (Hycult biotech, clone 265-1K1, 1:50 dilution) and an anti-mouse-FITC conjugated secondary antibody (1:1000). Nuclei were detected with DAPI (Life Technologies), Lyophilized MUB40 peptides (MUB40#1 (SEQ ID NO: 3)-Cy5, MUB40#2 (SEQ ID NO: 4)-Cy5, MUB40#3 (SEQ ID NO: 5)-Cy5, MUB40#4 (SEQ ID NO: 6)-Cy5, MUB40#1 (SEQ ID NO: 3)-Dylight, RI-MUB40 (SEQ ID NO: 2)-Cy5, and RI-MUB40 (SEQ ID NO: 2)-Biotin) were solubilized in a phosphate buffer pH8 at a 1 mg/mL concentration and used at a 1:1000 dilution. For PBMC staining CD19-APC (B lymphocytes), CD3-APC (T lymphocytes), and CD14-PercP (monocytes, macrophages) (BD Bioscience) were used at a 1:1000 dilution together with Dapi (1:1000) and MUB40-Cy5 (1 mg/mL). Actin was stained with Phalloidin-Rhodamine red X (RRX) (Jackson Immunoresearch Antibodies) used at a 1:1000 final dilution.
Polymorphonuclear neutrophils purification. Human polymorphonuclear neutrophils were purified as described previously (Monceaux et al. 2016). Briefly, plasma was removed by centrifugation (450×g, 15 min); blood cells were resuspended in 0.9% NaCl solution supplemented with 0.72% Dextran. […]

T1 sequence (P02788 20-710): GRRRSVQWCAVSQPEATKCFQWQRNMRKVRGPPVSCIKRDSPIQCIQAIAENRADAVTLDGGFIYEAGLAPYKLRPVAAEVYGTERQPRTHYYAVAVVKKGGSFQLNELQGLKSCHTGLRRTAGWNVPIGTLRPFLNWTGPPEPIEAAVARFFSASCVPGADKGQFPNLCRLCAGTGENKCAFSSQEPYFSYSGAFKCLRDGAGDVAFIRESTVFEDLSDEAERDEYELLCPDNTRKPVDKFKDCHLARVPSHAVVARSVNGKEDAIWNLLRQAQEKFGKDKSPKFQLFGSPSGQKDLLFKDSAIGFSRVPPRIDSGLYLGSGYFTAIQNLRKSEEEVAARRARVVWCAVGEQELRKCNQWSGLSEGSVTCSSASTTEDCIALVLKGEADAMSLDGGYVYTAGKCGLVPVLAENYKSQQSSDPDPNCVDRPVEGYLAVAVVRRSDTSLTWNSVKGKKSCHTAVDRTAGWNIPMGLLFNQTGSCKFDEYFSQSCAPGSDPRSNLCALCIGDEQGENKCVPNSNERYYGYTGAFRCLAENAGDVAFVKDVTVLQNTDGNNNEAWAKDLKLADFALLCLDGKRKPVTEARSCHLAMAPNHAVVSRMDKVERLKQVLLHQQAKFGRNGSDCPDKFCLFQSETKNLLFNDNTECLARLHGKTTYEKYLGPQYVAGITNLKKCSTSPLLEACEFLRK

Substance: Ac-C(X1)TAEGIKKFEGDGYELFKDNFPAGEKFDNDDTNDQFYTVIF-NH2 [Cy5-MUB40#1]
- labelling of deglycosylated lactoferrin [1]: no longer labelled; also recorded: abolished
- labelling of CF patients sputum [2]: labeled
- labelling of colonic goblet cell granules [3]: labelled
- labelling of colonic mucus layer and infiltrated neutrophils [4]: labelled
- staining of CD3+, CD14+ and CD19+ cells [5]: not stained

From patent US11472844B2, “Peptidomimetics, method of synthesis and uses thereof” (priority 2017, dated 2022)
